The target in one assay is T1, ZAP-70 (Homo sapiens, UniProt P43403).
T1 construct: endogenous in cells; host or cells: cell lysate
T1 sequence (P43403 1-619): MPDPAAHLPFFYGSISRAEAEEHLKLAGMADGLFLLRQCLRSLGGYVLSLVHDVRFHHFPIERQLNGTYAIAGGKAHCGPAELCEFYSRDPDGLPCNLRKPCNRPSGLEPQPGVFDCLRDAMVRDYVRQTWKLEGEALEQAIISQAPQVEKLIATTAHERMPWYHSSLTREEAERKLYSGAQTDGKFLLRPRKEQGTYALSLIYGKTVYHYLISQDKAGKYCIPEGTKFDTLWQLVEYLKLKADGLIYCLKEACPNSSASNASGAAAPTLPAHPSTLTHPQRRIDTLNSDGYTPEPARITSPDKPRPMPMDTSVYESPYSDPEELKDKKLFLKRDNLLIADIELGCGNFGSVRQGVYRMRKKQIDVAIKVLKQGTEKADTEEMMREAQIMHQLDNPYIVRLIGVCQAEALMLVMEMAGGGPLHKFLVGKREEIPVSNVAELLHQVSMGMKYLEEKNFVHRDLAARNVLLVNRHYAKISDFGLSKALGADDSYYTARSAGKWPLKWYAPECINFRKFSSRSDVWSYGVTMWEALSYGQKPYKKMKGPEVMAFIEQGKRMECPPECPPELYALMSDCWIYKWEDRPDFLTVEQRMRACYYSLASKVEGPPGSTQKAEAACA
The assay is described as follows: ZAP-70 kinobeads assay. In kind it is binding. The settings on record: competition with immobilized aminopyrido-pyrimidine ligand 24 in cell lysate; ZAP-70 detected by dot blot. The procedure, abridged:
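Cell lysate aliquots incubated with test compounds at various concentrations plus affinity beads carrying immobilized aminopyrido-pyrimidine ligand 24. Bead-captured proteins eluted; ZAP-70 quantified by specific antibody dot blot with infrared detection.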

A further assay relates to Jurkat cells. The assay can be described thus: Calcium release assay (Fluo-4 flow cytometry after anti-CD3 stimulation). In kind it is cell-based. The settings on record: Homo sapiens, Jurkat cell line J77, anti-CD3 activation, read-out: IC50 (Calcium ion release in cells). In short, it runs like this: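 Jurkat J77 cells loaded with Fluo-4/Pluronic F-127 for 30 min at 37 °C, then incubated with compound at room temperature in the dark in PBS–CaCl2 with 10% FCS. Stimulation with anti-CD3 (0.2 μg/ml final) plus GAM (0.75 μg/ml final) at 37 °C, then flow-cytometric Ca2+ fluorescence acquired for 200 s.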
For orientation: In flow cytometry, cells or beads pass a laser one at a time.

Structures can show the parent of a compound that is named as a salt.

This note sets out measurements from patent US20110098288A1, “SULFONAMIDES AS ZAP-70 INHIBITORS” (priority 2008, published 2011).

One may read the IC50 as the concentration that inhibits the measured activity by half.

Turning to `COc1cc(Nc2ncc(F)c(Nc3cccc(C)c3NS(C)(=O)=O)n2)cc(OC)c1OC` [Example 116, N-(2-(5-fluoro-2-(3,4,5-trimethoxyphenylamino)pyrimidin-4-ylamino)-6-methylphenyl)methanesulfonamide], the IC50 on ZAP-70 and in the assay with Jurkat cells was 100 to 1000 nM throughout.
As for `CCOc1cc(Nc2ncc(F)c(Nc3cccc(C)c3NS(C)(=O)=O)n2)cc(OC)c1OC` [Example 117, N-(2-(2-(3-ethoxy-4,5-dimethoxyphenylamino)-5-fluoropyrimidin-4-ylamino)-6-methylphenyl)methanesulfonamide], the IC50 is < 100 nM on ZAP-70 and 100 to 1000 nM in the assay on Jurkat cells.
For `COc1cc(Nc2ncc(F)c(Nc3cccc(C)c3NS(C)(=O)=O)n2)cc(OC(C)C)c1OC` [Example 118, N-(2-(5-fluoro-2-(3-isopropoxy-4,5-dimethoxyphenylamino)pyrimidin-4-ylamino)-6-methylphenyl)methanesulfonamide], the results for the IC50 at ZAP-70 and with Jurkat cells were < 100 nM and 100 to 1000 nM, respectively.
For `CS(=O)(=O)Nc1ccccc1Nc1nc(Nc2cccc(OCCO)c2)ncc1Cl` [Example 123, N-(2-(5-chloro-2-(3-(2-hydroxyethoxy)phenylamino)pyrimidin-4-ylamino)phenyl)methanesulfonamide], in that order: < 100 nM and < 100 nM.
For `CS(=O)(=O)Nc1ccccc1Nc1nc(Nc2cccc(OCCN3CCCCC3)c2)ncc1Cl` [Example 124, N-(2-(5-chloro-2-(3-(2-(piperidin-1-yl)ethoxy)phenylamino)pyrimidin-4-ylamino)phenyl)methanesulfonamide], in that order: < 100 nM and < 100 nM.
Take `COc1ccc(Nc2ncc(Cl)c(Nc3ccccc3NS(C)(=O)=O)n2)cc1OCCN1CCCCC1` [Example 125, N-(2-(5-chloro-2-(4-methoxy-3-(2-(piperidin-1-yl)ethoxy)phenylamino)pyrimidin-4-ylamino)phenyl)methanesulfonamide]: the IC50 was < 100 nM at ZAP-70 and 100 to 1000 nM in the assay with Jurkat cells.
Consider `CCN(CC)CCOc1cccc(Nc2ncc(Cl)c(Nc3ccccc3NS(C)(=O)=O)n2)c1` [Example 126, N-(2-(5-chloro-2-(3-(2-(diethylamino)ethoxy)phenylamino)pyrimidin-4-ylamino)phenyl)methanesulfonamide], for which the IC50 on ZAP-70 and in the assay with Jurkat cells was < 100 nM each time.
In the case of `CCN(CC)CCOc1ccc(Nc2ncc(Cl)c(Nc3ccccc3NS(C)(=O)=O)n2)cc1` [Example 127, N-(2-(5-chloro-2-(4-(2-(diethylamino)ethoxy)phenylamino)pyrimidin-4-ylamino)phenyl)methanesulfonamide], the IC50 at ZAP-70 and in the assay with Jurkat cells was < 100 nM throughout.
As to `Cc1cccc(Nc2nc(Nc3cccc(OCCN4CCCCC4)c3)ncc2Cl)c1NS(C)(=O)=O` [Example 128, N-(2-(5-chloro-2-(3-(2-(piperidin-1-yl)ethoxy)phenylamino)pyrimidin-4-ylamino)-6-methylphenyl)methanesulfonamide], the IC50 at ZAP-70 and in the assay on Jurkat cells was < 100 nM each time.
Turning to `CS(=O)(=O)Nc1ccccc1Nc1nc(Nc2cccc(OCC3CCNCC3)c2)ncc1Cl` [Example 129, N-(2-(5-chloro-2-(3-(piperidin-4-ylmethoxy)phenylamino)pyrimidin-4-ylamino)phenyl)methanesulfonamide], the IC50 at ZAP-70 is < 100 nM; in the assay with Jurkat cells, 100 to 1000 nM.
The like results for `CS(=O)(=O)Nc1ccccc1Nc1nc(Nc2cccc(OCCN3CCCC3=O)c2)ncc1Cl` [Example 130, N-(2-(5-chloro-2-(3-(2-(2-oxopyrrolidin-1-yl)ethoxy)phenylamino)pyrimidin-4-ylamino)phenyl)methanesulfonamide] were, in that order, 100 to 1000 nM and < 100 nM.
The like results for `CS(=O)(=O)Nc1ccccc1Nc1nc(Nc2ccc(NC(=O)CN3CCCC3)cc2)ncc1Cl` [Example 132, N-(4-(5-chloro-4-(2-(methylsulfonamido)phenylamino)pyrimidin-2-ylamino)phenyl)-2-(pyrrolidin-1-yl)acetamide] were, in that order, 100 to 1000 nM and < 100 nM.
The like results for `CS(=O)(=O)Nc1ccccc1Nc1nc(Nc2cccc(OCCCN3CCCCC3)c2)ncc1Cl` [Example 134] were, in that order, < 100 nM and 100 to 1000 nM.
For the compound `CN1CCN(CCCOc2cccc(Nc3ncc(Cl)c(Nc4ccccc4NS(C)(=O)=O)n3)c2)CC1` [Example 135], the IC50 at ZAP-70 and with Jurkat cells was < 100 nM each time.
On to `CN1CCN(CCCOc2ccc(Nc3ncc(Cl)c(Nc4ccccc4NS(C)(=O)=O)n3)cc2)CC1` [Example 136, N-(2-(5-chloro-2-(4-(3-(4-methylpiperazin-1-yl)propoxy)phenylamino)pyrimidin-4-ylamino)phenyl)methanesulfonamide], for which the IC50 at ZAP-70 and with Jurkat cells was < 100 nM throughout.
`COc1cc(Nc2ncc(Cl)c(Nc3ccccc3NS(C)(=O)=O)n2)cc(OCC(C)C)c1OC` [Example 137, N-(2-(5-chloro-2-(3-isobutoxy-4,5-dimethoxyphenylamino)pyrimidin-4-ylamino)phenyl)methanesulfonamide]: the IC50 is < 100 nM on ZAP-70 and 100 to 1000 nM with Jurkat cells.
For `COc1cc(Nc2ncc(Cl)c(Nc3ccccc3NS(C)(=O)=O)n2)cc(OC)c1OC` [Example 138, N-(2-(5-chloro-2-(3,4,5-trimethoxyphenylamino)pyrimidin-4-ylamino)phenyl)methanesulfonamide hydrochloride], in that order: < 100 nM and < 100 nM.
As for `COc1ccc(Nc2ncc(Cl)c(Nc3ccccc3NS(C)(=O)=O)n2)cc1` [Example 139, N-(2-(5-chloro-2-(4-methoxyphenylamino)pyrimidin-4-ylamino)phenyl)methanesulfonamide hydrochloride], the IC50 on ZAP-70 was 100 to 1000 nM; in the assay on Jurkat cells, < 100 nM.
Consider `CS(=O)(=O)Nc1ccccc1Nc1nc(Nc2cccc(OCCN3CCCC3)c2)ncc1Cl` [Example 140, N-(2-(5-chloro-2-(3-(2-(pyrrolidin-1-yl)ethoxy)phenylamino)pyrimidin-4-ylamino)phenyl)methanesulfonamide], for which the IC50 at ZAP-70 and in the assay with Jurkat cells was < 100 nM in each case.
Consider `COc1cc(Nc2ncc(Cl)c(Nc3ccccc3NS(C)(=O)=O)n2)ccc1OCCN1CCCC1` [Example 141, N-(2-(5-chloro-2-(3-methoxy-4-(2-(pyrrolidin-1-yl)ethoxy)phenylamino)pyrimidin-4-ylamino)phenyl)methanesulfonamide], for which the IC50 on ZAP-70 and in the assay with Jurkat cells was < 100 nM each time.
As for `COc1cc(Nc2ncc(Cl)c(Nc3ccccc3NS(C)(=O)=O)n2)ccc1OCCN1CCCCC1` [Example 142, N-(2-(5-chloro-2-(3-methoxy-4-(2-(piperidin-1-yl)ethoxy)phenylamino)pyrimidin-4-ylamino)phenyl)methanesulfonamide hydrochloride], the IC50 is < 100 nM on ZAP-70 and 100 to 1000 nM in the assay on Jurkat cells.
The like results for `CN1CCCCC1COc1cccc(Nc2ncc(Cl)c(Nc3ccccc3NS(C)(=O)=O)n2)c1` (stereo not shown) [Example 145, N-(2-(5-chloro-2-(3-((1-methylpiperidin-2-yl)methoxy)phenylamino)pyrimidin-4-ylamino)phenyl)methanesulfonamide] were, in that order, < 100 nM and 100 to 1000 nM.
In the case of `CN1CCCC(COc2cccc(Nc3ncc(Cl)c(Nc4ccccc4NS(C)(=O)=O)n3)c2)C1` (stereo not shown) [Example 146, N-(2-(5-chloro-2-(3-((1-methylpiperidin-3-yl)methoxy)phenylamino)pyrimidin-4-ylamino)phenyl)methanesulfonamide], the IC50 at ZAP-70 and in the assay with Jurkat cells was < 100 nM each time.
With `CN1CCN(C)C(COc2cccc(Nc3ncc(Cl)c(Nc4ccccc4NS(C)(=O)=O)n3)c2)C1` (stereo not shown) [Example 147, N-(2-(5-chloro-2-(3-((1,4-dimethylpiperazin-2-yl)methoxy)phenylamino)pyrimidin-4-ylamino)phenyl)methanesulfonamide], the IC50 on ZAP-70 and in the assay on Jurkat cells was < 100 nM in each case.
In the case of `CCN(CC)C(=O)COc1cccc(Nc2ncc(Cl)c(Nc3ccccc3NS(C)(=O)=O)n2)c1` [Example 150, 2-(3-(5-chloro-4-(2-(methylsulfonamido)phenylamino)pyrimidin-2-ylamino)phenoxy)-N,N-diethylacetamide], the results for the IC50 at ZAP-70 and in the assay with Jurkat cells were 100 to 1000 nM and < 100 nM, respectively.
With `CCNC(=O)COc1cccc(Nc2ncc(Cl)c(Nc3ccccc3NS(C)(=O)=O)n2)c1` [Example 151, 2-(3-(5-chloro-4-(2-(methylsulfonamido)phenylamino)pyrimidin-2-ylamino)phenoxy)-N-ethylacetamide 2,2,2-trifluoroacetate], the IC50 at ZAP-70 and in the assay on Jurkat cells was < 100 nM in each case.
